Columns and labels:
[1] = biological target: PTGER2 (EP2) (Homo sapiens (Human), UniProt P43116); test: hEP2 b-arrestin assay (PathHunter HEK 293 PTGER2 b-arrestin cells); type: cell-based; details: antagonistic activity, beta-arrestin assay; read-out: hEP2 b-arr IC50
Experimental: Plate is pre-incubated 15 minutes at 37° C. Then five microliters of PGE2 (final conc. 5 μM) are transferred into the assay plate. Plate is incubated 120 minutes at 37° C.
(each concentration is measured in duplicate)

[2] = biological target: PTGER4 (EP4) (Homo sapiens (Human), UniProt P35408); test: cell-based
Sequence of PTGER4 (EP4) (P35408 whole entry): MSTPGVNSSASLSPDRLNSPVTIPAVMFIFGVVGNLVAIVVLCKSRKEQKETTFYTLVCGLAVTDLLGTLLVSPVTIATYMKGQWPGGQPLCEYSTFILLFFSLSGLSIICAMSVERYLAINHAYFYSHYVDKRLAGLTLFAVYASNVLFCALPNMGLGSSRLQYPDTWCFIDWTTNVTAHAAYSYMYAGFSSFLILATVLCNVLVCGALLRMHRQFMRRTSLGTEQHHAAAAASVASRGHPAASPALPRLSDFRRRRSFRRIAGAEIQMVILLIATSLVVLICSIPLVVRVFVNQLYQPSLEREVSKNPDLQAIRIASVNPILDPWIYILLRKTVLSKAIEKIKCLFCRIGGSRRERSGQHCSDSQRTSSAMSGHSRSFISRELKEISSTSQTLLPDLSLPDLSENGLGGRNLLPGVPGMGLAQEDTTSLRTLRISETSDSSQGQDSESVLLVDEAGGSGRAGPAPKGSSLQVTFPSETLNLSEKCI

Sequence of PTGER2 (EP2) (P43116 whole entry): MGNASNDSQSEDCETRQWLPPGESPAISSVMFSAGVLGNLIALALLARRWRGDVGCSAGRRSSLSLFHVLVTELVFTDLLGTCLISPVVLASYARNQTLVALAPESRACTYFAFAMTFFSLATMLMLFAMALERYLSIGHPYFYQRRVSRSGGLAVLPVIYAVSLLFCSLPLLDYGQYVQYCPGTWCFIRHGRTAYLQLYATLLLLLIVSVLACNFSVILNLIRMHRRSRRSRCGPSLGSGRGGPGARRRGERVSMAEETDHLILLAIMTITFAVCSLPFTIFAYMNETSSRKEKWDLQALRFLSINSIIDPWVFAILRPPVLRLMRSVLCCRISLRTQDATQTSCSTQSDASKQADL

Row | Structure (SMILES) | IC50 [1] [nM] | IC50 [2] [nM]
1 | C#Cc1cc2c(cc1CCNc1cc(-c3ccc(CC(=O)O)c(OC)c3)ncn1)OCCO2 [Example 503, (4-{6-[2-(7-Ethynyl-2,3-dihydro-benzo[1,4]dioxin-6-yl)-ethylamino]-pyrimidin-4-yl}-2-methoxy-phenyl)-acetic acid] | 102 | 157
2 | CCCc1cc(-c2cc(NCCc3c(OC)cc4c(c3C)OCCO4)ncn2)ccc1CC(=O)O [Example 397, (4-{6-[2-(7-Methoxy-5-methyl-2,3-dihydro-benzo[1,4]dioxin-6-yl)-ethylamino]-pyrimidin-4-yl}-2-propyl-phenyl)-acetic acid] | 7 | 35
3 | COc1cc2c(cc1CCNc1cc(-c3ccc(C(=O)O)c(OC(C)C)c3)ncn1)OCCO2 [Example 493, 2-Isopropoxy-4-{6-[2-(7-methoxy-2,3-dihydro-benzo[1,4]dioxin-6-yl)-ethylamino]-pyrimidin-4-yl}-benzoic acid] | 642 | 497
4 | COc1cc2sccc2cc1CCNc1cc(-c2ccc(CC(=O)O)c(OC)c2)ncn1 [Example 381, (2-Methoxy-4-{6-[2-(6-methoxy-benzo[b]thiophen-5-yl)-ethylamino]-pyrimidin-4-yl}-phenyl)-acetic acid] | 51 | 126
5 | CCOc1cc2c(cc1CCNc1cc(-c3ccc(C(=O)O)c(OC4CC4)c3)ncn1)OCCO2 [Example 447, 2-Cyclopropoxy-4-{6-[2-(7-ethoxy-2,3-dihydro-benzo[1,4]dioxin-6-yl)-ethylamino]-pyrimidin-4-yl}-benzoic acid] | 2 | 130
6 | CCOc1cc2c(cc1CCNc1cc(-c3ccc(C(=O)O)c(CC)c3)ncn1)OCCO2 [Example 516, 4-{6-[2-(7-Ethoxy-2,3-dihydro-benzo[1,4]dioxin-6-yl)-ethylamino]-pyrimidin-4-yl}-2-ethyl-benzoic acid] | 23 | 930
7 | CCOc1cc(-c2cc(NCCc3cc(F)c4sccc4c3)ncn2)ccc1-c1cc(O)no1 [Example 550, 5-(2-Ethoxy-4-{6-[2-(7-fluoro-benzo[b]thiophen-5-yl)-ethylamino]-pyrimidin-4-yl}-phenyl)-isoxazol-3-ol] | 371 | 63
8 | CCOc1cc(-c2cc(NCCc3ccc4ccccc4c3C)ncn2)ccc1-c1noc(=S)[nH]1 [Example 565, 3-(2-Ethoxy-4-{6-[2-(1-methyl-naphthalen-2-yl)-ethylamino]-pyrimidin-4-yl}-phenyl)-[1,2,4]oxadiazole-5(4H)-thione] | 58 | 23
9 | COc1cc(-c2cc(NCCc3cc4ccsc4c(F)c3OC)ncn2)ccc1CC(=O)O [Example 485, (4-{6-[2-(7-Fluoro-6-methoxy-benzo[b]thiophen-5-yl)-ethylamino]-pyrimidin-4-yl}-2-methoxy-phenyl)-acetic acid] | 125 | 122
10 | COc1cc(-c2cc(NCCc3cc(F)c4sccc4c3)ncn2)ccc1-c1cc(O)no1 [Example 553, 5-(4-{6-[2-(7-Fluoro-benzo[b]thiophen-5-yl)-ethylamino]-pyrimidin-4-yl}-2-methoxy-phenyl)-isoxazol-3-ol] | 302 | 80
11 | CCc1cc(-c2cc(NCCc3cc4c(cc3OC)OCCO4)ncn2)ccc1CC(=O)O [Example 524, (2-Ethyl-4-{6-[2-(7-methoxy-2,3-dihydro-benzo[1,4]dioxin-6-yl)-ethylamino]-pyrimidin-4-yl}-phenyl)-acetic acid] | 231 | 257
12 | CCCc1cc(-c2cc(NCCc3cc(F)c4sccc4c3)ncn2)ccc1C(=O)NCCO [Example 460, 4-{6-[2-(7-Fluoro-benzo[b]thiophen-5-yl)-ethylamino]-pyrimidin-4-yl}-N-(2-hydroxy-ethyl)-2-propyl-benzamide] | 207 | 161
13 | CCCOc1cc(-c2cc(NCCc3cc4c(cc3OC)OCCO4)ncn2)ccc1CC(=O)O [Example 480, (4-{6-[2-(7-Methoxy-2,3-dihydro-benzo[1,4]dioxin-6-yl)-ethylamino]-pyrimidin-4-yl}-2-propoxy-phenyl)-acetic acid] | 170 | 207
14 | CCCc1cc(-c2cc(NCCc3cc(F)c4scc(Cl)c4c3)ncn2)ccc1CC(=O)O [Example 501, (4-{6-[2-(3-Chloro-7-fluoro-benzo[b]thiophen-5-yl)-ethylamino]-pyrimidin-4-yl}-2-propyl-phenyl)-acetic acid] | 196 | 808
15 | COc1cc2c(c(C)c1CCNc1cc(-c3ccc(C(=O)O)c(OC(C)C)c3)ncn1)OCCO2 [Example 432, 2-Isopropoxy-4-{6-[2-(7-methoxy-5-methyl-2,3-dihydro-benzo[1,4]dioxin-6-yl)-ethylamino]-pyrimidin-4-yl}-benzoic acid] | 20 | 87
16 | CCCc1cc(-c2cc(NCCc3cc4ccsc4c(F)c3OC)ncn2)ccc1CC(=O)O [Example 486, (4-{6-[2-(7-Fluoro-6-methoxy-benzo[b]thiophen-5-yl)-ethylamino]-pyrimidin-4-yl}-2-propyl-phenyl)-acetic acid] | 95 | 136
17 | O=C(O)c1ccc(-c2cc(NCCc3cc(F)c4sccc4c3)ncn2)cc1F [Example 554, 2-Fluoro-4-{6-[2-(7-fluoro-benzo[b]thiophen-5-yl)-ethylamino]-pyrimidin-4-yl}-benzoic acid] | 739 | 884
18 | CCCc1cc(-c2cc(NCCc3c(OC)cc4ccccc4c3C)ncn2)ccc1C(=O)O [Example 380, 4-{6-[2-(3-Methoxy-1-methyl-naphthalen-2-yl)-ethylamino]-pyrimidin-4-yl}-2-propyl-benzoic acid] | 16 | 17
19 | CCOc1cc2c(cc1CCNc1cc(-c3ccc(CC(=O)O)c(OC(C)C)c3)ncn1)OCCO2 [Example 425, (4-{6-[2-(7-Ethoxy-2,3-dihydro-benzo[1,4]dioxin-6-yl)-ethylamino]-pyrimidin-4-yl}-2-isopropoxy-phenyl)-acetic acid] | 65 | 152
20 | CC(C)Cc1cc(-c2cc(NCCc3cc(F)c4sccc4c3)ncn2)ccc1C(=O)O [Example 414, 4-{6-[2-(7-Fluoro-benzo[b]thiophen-5-yl)-ethylamino]-pyrimidin-4-yl}-2-isobutyl-benzoic acid] | 219 | 48
21 | O=C(O)Cc1ccc(-c2cc(NCCc3ccc4scc(Cl)c4c3)ncn2)cc1OC(F)(F)F [Example 499, (4-{6-[2-(3-Chloro-benzo[b]thiophen-5-yl)-ethylamino]-pyrimidin-4-yl}-2-trifluoromethoxy-phenyl)-acetic acid] | 180 | 169
22 | CCOc1cc(-c2cc(NCCc3c(OC)cc4ccccc4c3C)ncn2)ccc1OCCC(=O)O [Example 423, 3-(2-Ethoxy-4-{6-[2-(3-methoxy-1-methyl-naphthalen-2-yl)-ethylamino]-pyrimidin-4-yl}-phenoxy)-propionic acid] | 49 | 10

Now from value to compound:

Row | IC50 [1] [nM] | IC50 [2] [nM] | Structure (SMILES)
23 | 229 | 46 | CCOc1cc(-c2cc(NCCc3ccc4sccc4c3F)ncn2)cc(F)c1CC(=O)O [Example 375, (2-Ethoxy-6-fluoro-4-{6-[2-(4-fluoro-benzo[b]thiophen-5-yl)-ethylamino]-pyrimidin-4-yl}-phenyl)-acetic acid]
24 | 339 | 146 | O=C(O)Cc1ccc(-c2cc(NCCc3cc(F)c4sccc4c3)ncn2)cc1OC(F)F [Example 540, (2-Difluoromethoxy-4-{6-[2-(7-fluoro-benzo[b]thiophen-5-yl)-ethylamino]-pyrimidin-4-yl}-phenyl)-acetic acid]
25 | 604 | 88 | CCc1cc(-c2cc(NCCc3cc(F)c4sccc4c3)ncn2)cc(Cl)c1CC(=O)O [Example 541, (2-Chloro-6-ethyl-4-{6-[2-(7-fluoro-benzo[b]thiophen-5-yl)-ethylamino]-pyrimidin-4-yl}-phenyl)-acetic acid]
26 | 85 | 748 | CCOc1cc(-c2cc(NCCc3ccc4c(c3C)OCCO4)ncn2)ccc1C(=O)O [Example 508, 2-Ethoxy-4-{6-[2-(5-methyl-2,3-dihydro-benzo[1,4]dioxin-6-yl)-ethylamino]-pyrimidin-4-yl}-benzoic acid]
27 | 577 | 385 | CCOc1c(C(=O)O)ccc(-c2cc(NCCc3cc(F)c4sccc4c3)ncn2)c1F [Example 552, 2-Ethoxy-3-fluoro-4-{6-[2-(7-fluoro-benzo[b]thiophen-5-yl)-ethylamino]-pyrimidin-4-yl}-benzoic acid]
28 | 32 | 108 | CCc1cc(-c2cc(NCCc3c(OC)cc4ccccc4c3C)ncn2)ccc1C(=O)O [Example 446, 2-Ethyl-4-{6-[2-(3-methoxy-1-methyl-naphthalen-2-yl)-ethylamino]-pyrimidin-4-yl}-benzoic acid]
29 | 20 | 36 | CCCc1cc(-c2cc(NCCc3ccc4sccc4c3F)ncn2)ccc1C(=O)O [Example 378, 4-{6-[2-(4-Fluoro-benzo[b]thiophen-5-yl)-ethylamino]-pyrimidin-4-yl}-2-propyl-benzoic acid]
30 | 155 | 166 | CCCOc1cc(-c2cc(NCCc3ccc4sccc4c3F)ncn2)ccc1CC(=O)O [Example 393, (4-{6-[2-(4-Fluoro-benzo[b]thiophen-5-yl)-ethylamino]-pyrimidin-4-yl}-2-propoxy-phenyl)-acetic acid]
31 | 170 | 209 | COc1cc(-c2cc(NCCc3ccc4c(c3C)OCCO4)ncn2)ccc1OCCC(=O)O [Example 507, 3-(2-Methoxy-4-{6-[2-(5-methyl-2,3-dihydro-benzo[1,4]dioxin-6-yl)-ethylamino]-pyrimidin-4-yl}-phenoxy)-propionic acid]
32 | 221 | 66 | CCOc1cc(-c2cc(NCCc3ccc4sccc4c3F)ncn2)ccc1CC(=O)O [Example 368, (2-Ethoxy-4-{6-[2-(4-fluoro-benzo[b]thiophen-5-yl)-ethylamino]-pyrimidin-4-yl}-phenyl)-acetic acid]

From patent US11839613B2, “Pyrimidine derivatives as PGE2 receptor modulators” (IDORSIA PHARMACEUTICALS LTD, priority 2017, dated 2023)
